Measurements: patent US8722052B2, “Vaccinia virus protein A46 peptide and use thereof” (priority 2008, dated 2014)
Values joined by “and” are separate entries in the source; they are usually repeats but may differ in a detail not shown here. Equal values may be shown once. Square brackets hold non-standard residues; d marks the D form. Ends that are not written are not given here.

System: TLR4
Test: LPS-induced TNFα in primary human PBMC, ELISA
Type: cell-based
Details: peptide 1, 5 or 25 μM 1 h before 10 ng/ml LPS, 6 h
Protocol: FIGS. 13A and B are bar charts showing the effect of A467 and A464 on LPS-induced TNFα production and on cell viability in primary human cells. Peripheral blood mononuclear cells (PBMCs) were seeded in 96 well plates (1 ×10^6 cells/ml) 24 hours before treatment. A467 (SEQ ID NO. 23) and A464 (SEQ ID NO. 20) were added to the cells at 1, 5 and 25 μM 1 hour before stimulating with 10 ng/ml LPS. The peptides were added into the unstimulated control wells at 25 μM. Supernatants were collected 6 hours after stimulation and assayed for TNFα production by ELISA (A). The cells were assayed for viability by the MTT assay (B). No peptides were added to the control wells (black bars). Data is representative of at least three experiments each performed in triplicate and is expressed as mean±s.d;
FIGS. 14A and B are bar charts showing the comparison of the inhibitory effect of the L- and D-forms of A464 on LPS-induced TNFα in primary human and murine cells. PBMC (1×10^6 cells/ml, (A)) or immortalised murine macrophages (1.5×10^5 cells/ml, (B)) were seeded in 96 well plates 24 hours before treatment. L-form and D-form A464 peptides (with the 9R delivery peptide on the C-terminus, SEQ ID NO. 20) were added to the cells at a concentration of 1, 5 or 25 μM 1 hour before stimulating with 10 ng/ml LPS. Supernatants were collected 6 hours after stimulation and assayed for either human (A) or murine (B) TNFα production by ELISA. No peptides were added to the control wells (black bars). Data is representative of at least three experiments each performed in triplicate and is expressed as mean±s.d;
FIGS. 15A and B are bar charts showing the effect of the D-form A464 peptide with the TAT delivery sequence on LPS induced TNFα in primary human and murine cells. PBMC (A) and immortalised murine macrophages (B) were seeded in 96 well plates 24 hours before treatment. D-form of A467 (SEQ ID NO. 37) and A464 (SEQ ID NO. 36) with the TAT delivery sequence were added to the cells at a concentration of 1, 5 or 25 μM 1 hour before stimulating with 10 ng/ml LPS. The peptides were added into the unstimulated control wells at 25 μM. Supernatants were collected 6 hours after stimulation and assayed for either human (A) or murine (B) TNFα production by ELISA. No peptides were added to the control wells (black bars). Data is representative of at least three experiments each performed in triplicate and is expressed as mean±s.d;
FIGS. 16A and B are bar charts showing the effect of attaching 9R to the N-terminus of A464 on LPS-induced TNFα in primary human and murine cells. Immortalised murine macrophages (A) and PBMC (B) were seeded in 96 well plates 24 hours before treatment. L-form of A467 (SEQ ID NO. 39) and A464 (SEQ ID NO. 38) with the 9R-delivery sequence at the N-terminus were added to the cells at a concentration of 1, 5 or 25 μM 1 hour before stimulating with 10 ng/ml LPS. The peptides were added into the unstimulated control wells at […]. Supernatants were collected 6 hours after stimulation and assayed for either murine (A) or human (B) TNFα production by ELISA. No peptides were added to the control wells (black bars). Data is representative of at least three experiments each performed in triplicate and is expressed as mean±s.d;
FIGS. 17A and B are bar charts showing the effect of the D-form A464 with 9R at the N-terminus on LPS-induced TNFα in primary human and murine cells. Immortalised murine macrophages (A) and PBMC (B) were seeded in 96 well plates 24 hours before treatment. D-form of A467 (SEQ ID NO. 39) and A464 (SEQ ID NO. 38) peptides with the 9R-delivery sequence at N-terminus were added to the cells at a concentration of 1, 5 or 25 μM 1 hour before stimulating with 10 ng/ml LPS. The peptides were added into the unstimulated control wells at 25 μM. Supernatants were collected 6 hours after stimulation and assayed for either murine (A) or human (B) TNFα production by ELISA. No peptides were added to the control wells (black bars). […]

Chain of TLR4 (O00206 24-839): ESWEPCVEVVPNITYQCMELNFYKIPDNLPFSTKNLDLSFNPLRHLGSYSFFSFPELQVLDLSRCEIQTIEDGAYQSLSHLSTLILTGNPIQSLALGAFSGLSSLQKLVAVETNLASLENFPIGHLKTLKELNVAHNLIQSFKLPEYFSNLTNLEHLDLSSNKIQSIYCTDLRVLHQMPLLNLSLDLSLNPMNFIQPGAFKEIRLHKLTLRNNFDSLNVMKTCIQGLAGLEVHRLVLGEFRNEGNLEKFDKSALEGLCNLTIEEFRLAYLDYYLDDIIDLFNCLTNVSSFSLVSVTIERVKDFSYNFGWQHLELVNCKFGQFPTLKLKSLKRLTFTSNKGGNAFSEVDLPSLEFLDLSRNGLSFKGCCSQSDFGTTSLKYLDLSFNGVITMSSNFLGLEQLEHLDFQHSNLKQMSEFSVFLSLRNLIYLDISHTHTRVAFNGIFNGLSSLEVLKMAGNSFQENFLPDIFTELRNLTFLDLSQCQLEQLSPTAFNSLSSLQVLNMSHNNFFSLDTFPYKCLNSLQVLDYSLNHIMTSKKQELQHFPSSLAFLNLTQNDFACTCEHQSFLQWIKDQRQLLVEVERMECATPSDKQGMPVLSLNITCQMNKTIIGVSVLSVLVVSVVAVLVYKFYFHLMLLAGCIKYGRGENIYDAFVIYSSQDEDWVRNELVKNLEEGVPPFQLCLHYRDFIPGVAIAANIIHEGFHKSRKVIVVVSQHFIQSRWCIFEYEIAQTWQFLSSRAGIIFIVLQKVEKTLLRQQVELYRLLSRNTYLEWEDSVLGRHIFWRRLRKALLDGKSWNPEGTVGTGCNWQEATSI
Chain of TLR4 (Q9Y6Y9 17-160 partner limits assumed): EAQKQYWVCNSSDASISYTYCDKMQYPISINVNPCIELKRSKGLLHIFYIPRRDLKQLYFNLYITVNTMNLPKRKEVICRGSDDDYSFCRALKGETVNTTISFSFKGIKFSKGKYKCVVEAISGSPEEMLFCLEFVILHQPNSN

Substance | inhibition of LPS-induced hTNFα production
9RN-A464 (RRRRRRRRRKYSFKLILAEY) [Peptide 9RN-A464] | inhibition was only observed from 5-25 μM
D-9RN-A464 ([dR][dR][dR][dR][dR][dR][dR][dR][dR][dK][dY][dS][dF][dK][dL][dI][dL][dA][dE][dY]) [Peptide D-9RN-A464] | inhibited TNFα only at concentration of 24 μM
KYSFKLILAEYRRRRRRRRR [Peptide A464] | significant inhibition of TLR4 by A464 (SEQ ID No. 20) at 1 μM and 5 μM A464 (SEQ ID No. 20) peptide almost completely blocked hTNFα production
